ChEMBL document CHEMBL1287765, “Discovery of novel quinolinone adenosine A2B antagonists” (Bioorg Med Chem Lett, 2010)

Assay: Aqueous solubility of compound
Type: physicochemical
Settings: buffer

Which solubility does the source give for `CN(Cc1ccc(Cl)c(Cl)c1)C(=O)COc1ccc2[nH]c(=O)c(S(C)(=O)=O)c(CCc3ccccc3)c2c1` here?
The solubility was “Insoluble”.

With `Cn1c(=O)c(S(C)(=O)=O)c(CCc2ccccc2)c2cc(OCC(=O)NCc3ccc(Cl)c(Cl)c3)ccc21` as the molecule, how does the solubility read?
The solubility was “Insoluble”.

With `CS(=O)(=O)c1c(CCc2ccccc2)c2cc(OCC(=O)NCC3CC3)ccc2[nH]c1=O` as the molecule, how does the solubility read?
Its solubility is “Insoluble”.

Which solubility does the source give for `CS(=O)(=O)c1c(CCc2ccccc2)c2cc(OCC(=O)NCc3ccccc3)ccc2[nH]c1=O` here?
Its solubility is “Insoluble”.

Which solubility does the source give for `CS(=O)(=O)c1c(CCc2ccccc2)c2cc(OCC(=O)Nc3ccccc3)ccc2[nH]c1=O` here?
Its solubility is “Insoluble”.

Which solubility does the source give for `COCCCNC(=O)COc1ccc2[nH]c(=O)c(S(C)(=O)=O)c(CCc3ccccc3)c2c1` here?
The solubility was “Insoluble”.

With `CS(=O)(=O)c1c(CCc2ccccc2)c2cc(OCC(=O)NCc3ccc(Cl)c(Cl)c3)ccc2[nH]c1=O` as the molecule, how does the solubility read?
Its solubility is “Insoluble”.

Which solubility does the source give for `COc1ccc2[nH]c(=O)c(S(C)(=O)=O)c(CCc3ccccc3)c2c1` here?
The solubility was “Insoluble”.
